{"source": "patent US10513534B2", "about": "“2′-chloro nucleoside analogs for HCV infection” (priority 2012, dated 2019)", "key": {"[1]": {"test": "Cytotoxicity in Zluc cells transfected with human CES1", "format": "cell-based", "details": "Zluc cells transiently transfected with human CES1", "experimental": "(§1) An Huh-7-derived cell line (Zluc) that harbors an HCV genotype 1b replicon and a luciferase reporter gene was grown in Dulbecco's Modified Eagle Medium (DMEM) supplemented with 10% fetal bovine serum, 2 mM GlutaMAX, 1% MEM nonessential amino acids, 100 IU/mL penicillin, 100 μg/mL streptomycin, and 0.5 mg/mL Geneticin® (G418). Zluc cells were transiently transfected with human CES1 (GenBank Accession No. NM_001025194) by employing a lipid/histone based transfection procedure. Expression of CES1 was confirmed by Western blot, 24- and 48-hours after transfection, using anti-CES1 and anti-FLAG® tag antibodies.\n(§2) For cytotoxicity evaluation, cells were treated with compounds as described herein, and cell viability was monitored using the CellTiter-Blue Cell Viability Assay (Promega) by adding 20 μL of the assay solution to each well. The plates were then incubated at 37° C./5% CO2 for at least 3 hours."}, "[2]": {"system": "HCV genotype 1b replicon", "test": "HCV replicon assay in Zluc cells (CES1 study)", "format": "cell-based", "details": "72 hours", "experimental": "as §1\nFor dose response testing the cells were seeded in 96-well plates at 7.5×10^3 cells per well in a volume of […], and incubated at 37° C./5% CO2. Drug solutions were prepared freshly in the culture medium as 2× stocks. Ten additional 5-fold dilutions were prepared from these stocks in DMEM without G418. At least three hours after cells were seeded, drug treatment was initiated by adding 50 μL of drug dilutions to the plates in duplicate. […] The plates were shaken gently for 3 min at room temperature and luminescence was measured on a Victor^3 V 1420 multilabel counter (Perkin Elmer) with a 1 second read time using a 700 nm cut-off filter. The EC50 values were calculated from dose response curves from the resulting best-fit equations determined by Microsoft Excel and XLfit 4.1 software."}, "[3]": {"system": "HCV genotype 1b replicon", "test": "HCV replicon assay in Zluc cells transiently transfected with human CES1", "format": "cell-based", "details": "for EC50: Zluc cells transiently transfected with human CES1, 72 hours; for Effect of CES1 overexpression on replicon activity: cells overexpressing CES1 versus Zluc; for Fold Activity Increase EC50 (Zluc)/EC50 (Zluc + CES1): ratio of replicon EC50 without and with CES1 overexpression", "experimental": "as §1\nFor dose response testing the cells were seeded in 96-well plates at 7.5×10^3 cells per well in a volume of […], and incubated at 37° C./5% CO2. Drug solutions were prepared freshly in the culture medium as 2× stocks. Ten additional 5-fold dilutions were prepared from these stocks in DMEM without G418. At least three hours after cells were seeded, drug treatment was initiated by adding 50 μL of drug dilutions to the plates in duplicate. Final concentrations of drug ranged from 100 μM to 0.0000512 μM. Cells were then incubated at 37° C./5% CO2. […] For this, media was removed from the plates via gentle tapping. Fifty microliters of ONE-glo luciferase assay reagent was added to each well. The plates were shaken gently for 3 min at room temperature and luminescence was measured on a Victor^3 V 1420 multilabel counter (Perkin Elmer) with a 1 second read time using a 700 nm cut-off filter. The EC50 values were calculated from dose response curves from the resulting best-fit equations determined by Microsoft Excel and XLfit 4.1 software."}, "[4]": {"test": "Cytotoxicity in Zluc cells (CES1 study)", "format": "cell-based", "details": "human", "experimental": "as §2"}, "[5]": {"system": "Zluc + CES1 cells", "test": "Cytotoxicity in Zluc cells transfected with human CES1", "format": "cell-based", "details": "Zluc cells transiently transfected with human CES1", "experimental": "as §1, §2"}, "[6]": {"system": "Zluc cells", "test": "Cytotoxicity in Zluc cells (CES1 study)", "format": "cell-based", "experimental": "as §2"}, "[7]": {"test": "Plasma nucleoside pharmacokinetics after single oral dose in CD-1 mice", "format": "in vivo", "details": "single oral dose 10 mg/kg in PEG 200", "procedure,_shortened": "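Mouse plasma was extracted by acetonitrile/0.2% formic acid protein precipitation using 2′-MeG-D3 or tiapride as internal standard. Nucleoside was quantified by positive-ion LC-MS/MS after C18 gradient separation. Calibration spanned 0.500 (LLOQ) to 200 ng/mL.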"}, "[8]": {"system": "Zluc cells", "test": "Cytotoxicity evaluation, CellTiter-Blue Cell Viability Assay", "details": "Zluc cells, CellTiter-Blue"}, "[9]": {"system": "fresh human hepatocytes", "test": "Release of active metabolite in fresh human hepatocytes", "format": "in vitro ADME", "set-up": "key to FHH TP (6 hr): + ≤ 15; 15 < ++ ≤ 50; 50 < +++ ≤ 100; 100 < ++++; BLD = below limit of detection", "details": "10 μM", "experimental": "(§3) Plates of fresh human and mouse hepatocytes were obtained on ice. The medium was removed and replaced with hepatocyte culture medium (William's E supplemented with penicillin-streptomycin, 1% L-glutamine, 1% insulin-transferrin-selenium and 0.1 μM Dexamethasone (Invitrogen) or with Invitro GRO HI medium complemented with Torpedo antibiotics (Celsis)). Cells were left overnight in an incubator at 37° C. to acclimatize to culture and the medium.\n(§4) Hepatocyte incubations were conducted at a final volume of 0.5 mL hepatocyte culture medium/well (0.8 million cells/well for human and 0.5 million cells/well for mouse; 12 well plate no overlay, collagen coat). Culture medium from overnight incubation of cells was removed and replaced with fresh medium, pre-warmed to 37° C., containing 10 μM of test compound from a stock solution in DMSO (final DMSO concentration was 0.1%). At each specific time point, incubation medium was removed and cell monolayers were carefully washed two times with ice-cold PBS. Following the last wash, all PBS was carefully removed and 1.0 mL of extraction solution (ice-cold 70% methanol/30% water) added. Cells were scraped off and suspended in the extraction solution, transferred to 2 mL polypropylene microfuge tubes and intracellular contents extracted overnight at −20° C.\n(§5) After the overnight treatment the cellular extracts were prepared by centrifugation at 16,000×g for 10 min to remove cellular debris. The remaining sample was then dried using a refrigerated centrivap concentrator. Dry extracts were reconstituted in 1000 μL of HPLC-grade water and centrifuged at 16,000×g for 10 min. Aliquots (100 μL each) of the supernatant were transferred into a 96 well plate and internal standard (4 ng/mL final concentration) was added as the internal standard (IS) for LC-MS/MS analysis.\n(§6) The incubation time points were 6, 24 and 48 hours for human hepatocytes and 1, 4, 8, 12 and 24 hours for mouse hepatocytes."}, "[10]": {"test": "Stability in simulated intestinal fluid", "format": "in vitro ADME", "details": "simulated intestinal fluid with pancreatin, 100 μM, 2 hours, 37° C.", "experimental": "(§7) Stability in Simulated Gastric and Intestinal Fluids: Simulated gastric and intestinal fluids containing pepsin and pancreatin respectively were prepared according to the U.S. Pharmacopoeia USP291 procedure(www.pharmacopeia.cn/v29240/usp29nf24s0_ris1s126.html). Each test compound (final concentration 100 μM) was incubated in duplicate in the appropriate fluid for 2 hours at 37° C. The samples were quenched with […] cold acetonitrile, vortexed for 30 seconds and then centrifuged at 16100×g for 10 min. The supernatants were analyzed by HPLC on a C-18 column with UV detection at 252 nm. The time zero samples were prepared by adding SGF or SIF fluid to the quenching solvent followed by the test compound. Stability of the compound was determined by peak area of the test compound after incubation and calculated as percent of the peak area observed at time zero."}, "[11]": {"test": "Plasma prodrug and nucleoside pharmacokinetics after single oral dose in cynomolgus monkeys", "format": "in vivo", "details": "cynomolgus monkey, plasma, single oral 10 mg/kg", "experimental": "(§8) For each compound, a single oral dose at 10 mg/kg in PEG 200 (dose volume 3 mL/kg) was administered to cynomolgus monkeys. Untreated animals were used for the collection of control liver. Plasma samples were collected at 0.5, 1, 2, 4, 6, 8, 12 and 24 hours for compound 37, diastereomer 2.\nPlasma samples were analyzed for the prodrug and nucleoside by LC-MS/MS. For protein precipitation and extraction, each plasma sample (50 μL) was treated with 500 μL of 0.2% formic acid in acetonitrile and 20 μL of an appropriate internal standard working solution. After vortexing and centrifugation, 500 µL of the sample extracts were transferred to a new plate, dried under N2 at ˜28° C. and reconstituted with 75 μL of 0.2% FA in water. The extracts were chromatographed on an Aquasil C18 column using a gradient system of 0.2% formic acid in water and acetonitrile. The analytes were detected and quantified by tandem mass spectrometry in positive ion mode on an MDS Sciex API4000 equipped with a Turbo Ionspray® interface."}, "[12]": {"test": "Liver triphosphate pharmacokinetics after single oral dose in cynomolgus monkeys", "format": "in vivo", "details": "normalized to 1 μmol/kg dose", "experimental": "as §8\nLiver samples were analyzed for the relevant nucleoside triphosphate by LC-MS/MS. […] Appropriate internal standard solution was added to the homogenate followed by neutralization with 20% ammonium hydroxide solution and addition of 500 μL 1% formic acid. The tissue samples were extracted by weak anion exchange solid phase extraction (SPE). Post extraction, the eluates were evaporated under nitrogen, followed by reconstitution before injection onto the LC-MS/MS system."}, "[13]": {"test": "Stability in simulated gastric fluid", "format": "in vitro ADME", "details": "simulated gastric fluid with pepsin, 100 μM, 2 hours, 37° C.", "experimental": "as §7"}, "[14]": {"system": "HCV genotype 1b replicon", "test": "HCV replicon assay (Zluc luciferase)", "format": "cell-based", "details": "Zluc cells, 72 hours; read-out: HCV Replicon EC50", "procedure,_shortened": "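Zluc Huh-7 cells with HCV genotype 1b replicon and luciferase reporter treated with 5-fold dilutions (100 μM to 0.0000512 μM final) in duplicate, or at 1 and 10 μM. Luminescence read with ONE-glo; EC50 from dose-response fits, or % inhibition at the fixed concentrations.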"}, "[15]": {"system": "fresh mouse hepatocytes", "test": "Release of active metabolite in fresh mouse hepatocytes", "format": "in vitro ADME", "details": "10 μM", "experimental": "as §3, §4, §5, §6"}}, "data": [{"smiles": "CC(C)OC(=O)[C@H](C)N[P@](=O)(OC[C@H]1O[C@@H](n2ccc(=O)[nH]c2=O)[C@](C)(F)[C@@H]1O)Oc1ccccc1", "note": "[Sofosbuvir, sofosbuvir]", "values": [{"measurement": "CC50", "setting": "[1]", "result": "> 50000", "unit": "nM"}, {"measurement": "EC50", "setting": "[2]; Hepatitis C virus", "result": "250 to 1000", "unit": "nM"}, {"measurement": "EC50", "setting": "[3]; Hepatitis C virus", "result": "250 to 1000", "unit": "nM"}, {"measurement": "Effect of CES1 overexpression on replicon activity", "setting": "[3]", "result": "not increased"}, {"measurement": "Fold Activity Increase EC50 (Zluc)/EC50 (Zluc + CES1)", "setting": "[3]", "result": "+ (+ ≤ 1)"}, {"measurement": "CC50", "setting": "[4]", "result": "> 50000", "unit": "nM"}]}, {"smiles": "CC(C)(CO)C(=O)SCCOP(=O)(NCc1ccccc1)OC[C@H]1O[C@@H](n2cnc3c(=O)[nH]c(N)nc32)[C@](C)(O)[C@@H]1O", "note": "(stereo partly drawn) [IDX-184]", "values": [{"measurement": "CC50", "setting": "[5]", "result": "> 50000", "unit": "nM"}, {"measurement": "EC50", "setting": "[2]", "result": "< 250", "unit": "nM"}, {"measurement": "EC50", "setting": "[3]", "result": "< 250", "unit": "nM"}, {"measurement": "Effect of CES1 overexpression on replicon activity", "setting": "[3]", "result": "not increased"}, {"measurement": "Fold Activity Increase EC50 (Zluc)/EC50 (Zluc + CES1)", "setting": "[3]", "result": "+ (+ ≤ 1)"}, {"measurement": "CC50", "setting": "[6]", "result": "> 50000", "unit": "nM"}]}, {"smiles": "CC(C)OP1(=O)OC[C@H]2O[C@@H](n3ccc(=O)[nH]c3=O)[C@](C)(Cl)[C@@H]2O1", "note": "(single isomer, unassigned) [Compound 37 Diastereomer 2]", "values": [{"measurement": "Ms Plasma nucleoside Cmax", "setting": "[7]", "result": "+++ (50 < +++ ≤ 100)"}, {"measurement": "CC50", "setting": "[8]", "result": "> 50000", "unit": "nM"}, {"measurement": "FHH TP AUC", "setting": "[9]", "result": "+++ (500 < +++ ≤ 1500)"}, {"measurement": "FHH TP Cmax", "setting": "[9]", "result": "++ (15 < ++ ≤ 50)"}, {"measurement": "FHH TP (6 hr)", "setting": "[9]; 6 hr", "result": "BLD^b"}, {"measurement": "FHH TP (24 hr)", "setting": "[9]; 24 hr", "result": "++ (15 < ++ ≤ 50)"}, {"measurement": "FHH TP (48 hr)", "setting": "[9]; 48 hr", "result": "++ (15 < ++ ≤ 50)"}, {"measurement": "SIF stability (percent remaining)", "setting": "[10]", "result": "++++ (75% < ++++)"}, {"measurement": "Tmax", "setting": "[11]", "result": 4, "unit": "h"}, {"measurement": "AUC(0-t)", "setting": "[11]; normalized to 1 μmol/kg dose, read-out: Plasma prodrug AUC0-24", "result": "> 1.5", "unit": "µM·h"}, {"measurement": "Cmax", "setting": "[11]; normalized to 1 μmol/kg dose, read-out: Plasma prodrug Cmax", "result": "> 100", "unit": "nM"}, {"measurement": "Nucleoside triphosphate in Liver C6", "setting": "[12]; 6 hours post dose, 10 mg/kg oral", "result": "++++ (100 < ++++)"}, {"measurement": "Nucleoside triphosphate in Liver AUC0-24", "setting": "[12]; single oral 10 mg/kg", "result": "++++ (1500 < ++++)"}, {"measurement": "Nucleoside triphosphate in Liver Cmax", "setting": "[12]; single oral 10 mg/kg", "result": "++++ (100 < ++++)"}, {"measurement": "SGF stability (percent remaining)", "setting": "[13]", "result": "++++ (75% < ++++)"}, {"measurement": "EC50", "setting": "[14]", "result": "1000 to 10000", "unit": "nM"}, {"measurement": "MsH AUC", "setting": "[15]", "result": "++++ (1500 < ++++)"}, {"measurement": "MsH Cmax", "setting": "[15]", "result": "++++ (100 < ++++)"}]}]}
